{
  "source": "patent US20190101533A1",
  "about": "“ANIMAL MODEL FOR STUDYING ZCCHC6 IN BONE DISEASE AND DEVELOPMENT” (Northeast Ohio Medical University, priority 2016, published 2019)",
  "tested_on": "human OA chondrocytes",
  "assay": "IL-1β stimulation of human OA chondrocytes: ZCCHC6, ZCCHC11 and IL-6 expression (TaqMan, ELISA, Western immunoblotting)",
  "assay_type": "cell-based",
  "experimental": "Chondrocytes were derived by enzymatic digestion of human cartilage obtained from OA patients (n=14) undergoing knee joint replacement. Chondrocytes were stimulated with IL-1β (5 ng/ml) or treated with Actinomycin D (5 μg/ml) or NFκB inhibitor SC514 (75 μM) or JNK inhibitor (25 μM). Total RNA from grounded cartilage and from chondrocytes was purified using Qiagen RNeasy kit (Qiagen). Reverse transcription was performed using the Quantitect Reverse Transcription kit and the ZCCHC6 or IL-6 mRNA was quantified using TaqMan assays. SiRNA-mediated depletion of ZCCHC6 in human chondrocytes was used to study the effect on inflammatory cytokine expression using a cytokine array (Ray Biotech). Protein expression of IL-6 was studied using Western immunoblotting and quantified by ELISA in culture supernatants. Results were derived using Sigma Plot 12.3 package and p<0.05 was considered significant.\nWe next determined whether IL-1β induces expression of IL-6 correlates with the expression of ZCCHC6 in human OA chondrocytes. Human OA chondrocytes were cultured and treated with IL-1β as above and the mRNA expression of IL-6 was quantified by TaqMan assay and secreted IL-6 was quantified using an ELISA kit specific for human IL-6 (R&D Systems, Catalog No. D0650, sensitivity of 2.17 pg IL-6/ml). ZCCHC6 protein expression was determined by Western immunoblotting using an antibody specific for the N-terminus of the protein (Santa Cruz, sc-137947).",
  "key": {"[1]": {"settings": "human OA chondrocytes stimulated with IL-1β (5 ng/ml) for 24 h"}},
  "data": [
    {"substance": "IL-1β: major cytokine involved in cartilage catabolism in osteoarthritis; used to stimulate chondrocytes", "values": [
      {"measurement": "expression of ZCCHC6 protein (Western immunoblotting)", "setting": "[1]", "result": "highly induced"},
      {"measurement": "secreted IL-6 in the culture medium (ELISA)", "setting": "[1]", "result": "secreted large amounts of IL-6"},
      {"measurement": "expression of ZCCHC11", "setting": "human chondrocytes treated with IL-1β", "result": "marginally upregulated"}
    ]}
  ]
}
